Reference: ChEMBL document CHEMBL3616451, “Design and synthesis of 11α-substituted bile acid derivatives as potential anti-tuberculosis agents” (Bioorg Med Chem Lett, 2015)
In brackets after ≈: the same amount, converted by molar mass. Activity calls are given as the source filed them. The calls are words filed in the database; no cut-off is given here.

Legend:
[1] = tested on: Mycobacterium tuberculosis; assay: Anti-tubercular activity against rifampicin, isoniazid, ethambutol and pyrazinamide-sensitive Mycobacterium tuberculosis H37Ra ATCC 25177 assessed as growth inhibition at 10 ug/ml by XRMA method relative to control; format: functional; settings: for inhibition of growth at 10 µg/mL: read-out: GI
[2] = tested on: Mycobacterium tuberculosis; assay: Anti-tubercular activity against rifampicin, isoniazid, ethambutol and pyrazinamide-sensitive Mycobacterium tuberculosis H37Ra ATCC 25177 assessed as growth inhibition at 3 ug/ml by XRMA method relative to control; format: functional; settings: for inhibition of growth at 3 µg/mL: read-out: GI
[3] = tested on: Mycobacterium tuberculosis; assay: Anti-tubercular activity against rifampicin, isoniazid, ethambutol and pyrazinamide-sensitive Mycobacterium tuberculosis H37Ra ATCC 25177 assessed as growth inhibition at 30 ug/ml by XRMA method relative to control; format: functional; settings: read-out: GI
[4] = tested on: Staphylococcus aureus; assay: Antibacterial activity against Staphylococcus aureus ATCC 29213 assessed as growth inhibition at 30 ug/ml relative to control; format: functional
[5] = tested on: Pseudomonas fluorescens; assay: Antibacterial activity against Pseudomonas fluorescens ATCC 13525 assessed as growth inhibition at 30 ug/ml relative to control; format: functional; settings: for inhibition of growth at 30 µg/mL: read-out: GI
[6] = tested on: Bacillus subtilis; assay: Antibacterial activity against Bacillus subtilis ATCC 23857 assessed as growth inhibition at 30 ug/ml relative to control; format: functional; settings: for inhibition of growth at 30 µg/mL: read-out: GI
[7] = tested on: Escherichia coli; assay: Antibacterial activity against Escherichia coli […] assessed as growth inhibition at 30 ug/ml relative to control; format: functional; settings: read-out: GI
[8] = tested on: Mycobacterium tuberculosis; assay: Anti-tubercular activity against rifampicin, isoniazid, ethambutol and pyrazinamide-sensitive active phage of Mycobacterium tuberculosis H37Ra ATCC 25177 infected in human THP1 cells by neutral red assay; format: functional, organism-based; settings: H37Ra ATCC 25177, THP-1
[9] = tested on: Mycobacterium tuberculosis; assay: Anti-tubercular activity against rifampicin, isoniazid, ethambutol and pyrazinamide-sensitive active phage of Mycobacterium tuberculosis H37Ra ATCC 25177 by serial dilution method; format: functional, organism-based
[10] = tested on: Mycobacterium tuberculosis; assay: Anti-tubercular activity against rifampicin, isoniazid, ethambutol and pyrazinamide-sensitive dormant phage of Mycobacterium tuberculosis H37Ra ATCC 25177 infected in human THP1 cells by neutral red assay; format: functional, organism-based; settings: H37Ra ATCC 25177, THP-1
[11] = tested on: Mycobacterium tuberculosis; assay: Anti-tubercular activity against rifampicin, isoniazid, ethambutol and pyrazinamide-sensitive dormant phage of Mycobacterium tuberculosis H37Ra ATCC 25177 by serial dilution method; format: functional, organism-based

Structure (SMILES) | inhibition of growth at 30 µg/mL [3] [%] | inhibition of growth at 10 µg/mL [1] [%] | growth inhibition (GI) [4] | inhibition of growth at 30 µg/mL [5] [%] | inhibition of growth at 3 µg/mL [2] [%] | inhibition of growth at 30 µg/mL [7] [%] | further results
COC(=O)CC[C@@H](C)[C@H]1CC[C@H]2[C@H]3[C@H]([C@H](N=[N+]=[N-])C(=O)[C@]12C)[C@@]1(C)CC[C@@H](OC(C)=O)C[C@H]1C[C@H]3OC(C)=O | 12 |  |  |  |  |  | growth inhibition (GI) [1]: inactive; growth inhibition (GI) [2]: inactive
COC(=O)CC[C@@H](C)[C@H]1CC[C@H]2[C@H]3[C@H]([C@H](n4cc(-c5ccccn5)nn4)C(=O)[C@]12C)[C@@]1(C)CC[C@@H](OC(C)=O)C[C@H]1C[C@H]3OC(C)=O | 71 | 48 | inactive | 47.1 | 38 | 32.1 | growth inhibition (GI) [6]: inactive
COC(=O)CC[C@@H](C)[C@H]1CC[C@H]2[C@H]3[C@H]([C@H](n4cc(-c5ccccc5)nn4)C(=O)[C@]12C)[C@@]1(C)CC[C@@H](OC(C)=O)C[C@H]1C[C@H]3OC(C)=O | 74 | 68 | inactive |  | 67 | 17.8 | growth inhibition (GI) [5]: inactive; inhibition of growth at 30 µg/mL [6]: 20%
NNC(=O)c1ccncc1 [ISONIAZID] |  |  |  |  |  |  | IC50 [8]: 2.4 ng/mL (≈ 0.0175 µM); IC90 [8]: 75 ng/mL (≈ 0.547 µM); IC50 [9]: 1.9 ng/mL (≈ 0.0139 µM); IC90 [9]: 74 ng/mL (≈ 0.54 µM); IC50 [10]: 2.4 ng/mL (≈ 0.0175 µM); IC90 [10]: 7.8 ng/mL (≈ 0.0569 µM); IC50 [11]: 2.3 ng/mL (≈ 0.0168 µM); IC90 [11]: 75 ng/mL (≈ 0.547 µM)
COC(=O)CC[C@@H](C)[C@H]1CC[C@H]2[C@H]3[C@H]([C@H](NC(=O)C4CN4)C(=O)[C@]12C)[C@@]1(C)CC[C@@H](OC(C)=O)C[C@H]1C[C@H]3OC(C)=O (stereo not given in full) | 14 | 10 |  |  |  |  | growth inhibition (GI) [2]: inactive
COC(=O)CC[C@@H](C)[C@H]1CC[C@H]2[C@H]3[C@H]([C@H](n4cc(-c5ccc(F)cc5)nn4)C(=O)[C@]12C)[C@@]1(C)CC[C@@H](OC(C)=O)C[C@H]1C[C@H]3OC(C)=O | 79 | 75 | inactive | 23.2 | 71 | 43.8 | inhibition of growth at 30 µg/mL [6]: 20%
COC(=O)CC[C@@H](C)[C@H]1CC[C@H]2[C@@H]3[C@H](OC(C)=O)C[C@@H]4C[C@H](OC(C)=O)CC[C@]4(C)[C@H]3CC(=O)[C@]12C | 34 | 28 |  |  | 13 |  | 
COC(=O)CC[C@@H](C)[C@H]1CC[C@H]2[C@H]3[C@H]([C@H](NC(=O)[C@H]4CCCN4)C(=O)[C@]12C)[C@@]1(C)CC[C@@H](OC(C)=O)C[C@H]1C[C@H]3OC(C)=O | 71 | 66 | inactive | 20.1 | 55 | 23.9 | growth inhibition (GI) [6]: inactive
